US20150344444A1, “BET-PROTEIN-INHIBITING DIHYDROXYQUINOXALINONES” (BAYER PHARMA AKTIENGESELLSCHAFT, priority 2012, published 2015)

Columns and labels:
MOLM-13 cells = assay: MOLM-13 cell proliferation assay (alamarBlue); type: cell-based; settings: inhibition of cell proliferation, 96 hours, human AML cell line
Protocol: (§1) In accordance with the invention, the ability of the substances to inhibit cell proliferation was determined Cell viability was determined by means of the alamarBlue® reagent (Invitrogen) in a Victor X3 Multilabel Reader (Perkin Elmer). The excitation wavelength was 530 nm and the emission wavelength […].
The MOLM-13 cells (DSMZ, ACC 554) were sown at a concentration of 4000 cells/well in 100 μl of growth medium (RPMI1640, 10% FCS) on 96-well microtitre plates.
(§2) After overnight incubation at 37° C., the fluorescence values were determined (CI values). Then the plates were treated with various substance dilutions (1E-5 M, 3E-6 M, 1E-6 M, 3E-7 M, 1E-7 M, 3E-8 M, 1E-8 M) and incubated at 37° C. over 96 hours (MOLM-13, B16F10 cells) or 120 hours (MOLP-8 cells). Subsequently, the fluorescence values were determined (CO values). For the data analysis, the CI values were subtracted from the CO values and the results were compared between cells which had been treated with various dilutions of the substance or only with buffer solution. The IC50 values (substance concentration needed for 50% inhibition of cell proliferation) were calculated therefrom.
MOLM-13 human AML (acute myeloid leukaemia) cell line

MOLP-8 cells = assay: MOLP-8 cell proliferation assay (alamarBlue); type: cell-based; settings: inhibition of cell proliferation, 120 hours, human multiple myeloma cell line
Protocol: as §1
The MOLP-8 cells (DSMZ, ACC 569) were sown at a concentration of 4000 cells/well in 100 μl of growth medium (RPMI1640, 20% FCS) on 96-well microtitre plates.
as §2
MOLP-8 human multiple myeloma cell line

[1] = target: T1, BRD4 Bromo Domain 2 [BRD4(2)] (Homo sapiens, UniProt O60885); assay: BRD4(2)/acetylated peptide H4 binding assay (TR-FRET); settings: inhibition of interaction between His6-tagged BRD4(2) (amino acids 357-445) and acetylated histone H4 peptide
T1 construct: N-terminally His6-tagged BRD4(2) (amino acids 357-445); made in house; host or cells: E. coli
Text: Protein-Protein Interaction Assay: BRD4/Acetylated Peptide H4 Binding Assay
2. Assay Description for BRD4 Bromo Domain 2 [BRD4(2)]
To assess the BRD4(2) binding strength of the substances described in this application, the ability thereof to inhibit the interaction between BRD4(2) and acetylated histone H4 in a dose-dependent manner was quantified.
For this purpose, a time-resolved fluorescence resonance energy transfer (TR-FRET) assay was used, which measures the binding between N-terminally His6-tagged BRD4(2) (amino acids 357-445) and a synthetic acetylated histone H4 (Ac-H4) peptide with sequence SGRGK(Ac)GGK(Ac)GLGK(Ac)GGAK(Ac)RHRKVLRDNGSGSK-biotin. The recombinant BRD4(2) protein produced in house according to Filippakopoulos et al., Cell, 2012, 149:214-231 was expressed in E. coli and purified by means of (Ni-NTA) affinity and (Sephadex G-75) size exclusion chromatography. The Ac-H4 peptide can be purchased, for example, from Biosyntan (Berlin, Germany).
In the assay, typically 11 different concentrations of each substance (0.1 nM, 0.33 nM, 1.1 nM, 3.8 nM, 13 nM, 44 nM, 0.15 μM, 0.51 μM, 1.7 μM, 5.9 μM and 20 μM) were analysed as duplicates on the same microtitre plate. For this purpose, 100-fold concentrated solutions in DMSO were prepared by serial dilutions (1:3.4) of a 2 mM stock solution into a clear, 384-well microtitre plate (Greiner Bio-One, Frickenhausen, Germany). From this, 50 nl were transferred into a black test plate (Greiner Bio-One, Frickenhausen, Germany). The test was started by the addition of 2 μl of a 2.5-fold concentrated BRD4(2) solution (final concentration typically 100 nM in the 5 μl of reaction volume) in aqueous assay buffer [50 mM HEPES pH 7.5, 50 mM sodium chloride (NaCl); 50 mM potassium fluoride (KF); 0.25 mM CHAPS and 0.05% serum albumin (BSA)] to the substances in the test plate. This was followed by a 10-minute incubation step at 22° C. for the pre-equilibration of putative complexes between BRD4(2) and the substances.
The mixture was then incubated in the dark at 22° C. for one hour and then at 4° C. for at least 3 hours and for no longer than overnight. The formation of BRD4(2)/Ac-H4 complexes was determined by the measurement of the resonance energy transfer from the streptavidin-Eu chelate to the anti-6His-XL665 antibody present in the reaction. For this purpose, the fluorescence emission was measured at 620 nm and 665 nm after excitation at 330-350 nm in a TR-FRET measuring instrument, for example a Rubystar or Pherastar (both from BMG Lab Technologies, Offenburg, Germany) or a Viewlux (Perkin-Elmer). The ratio of the emissions at 665 nm and at 622 nm was taken as an indicator of the amount of BRD4(2)/Ac-H4 complexes formed.
The data (ratios) obtained were normalized, with 0% inhibition corresponding to the mean from the measurements for a set of controls (typically 32 data points) in which all the reagents were present. In these, in place of test substances, 50 nl of DMSO (100%) were used Inhibition of 100% corresponded to the mean from the measurements for a set of controls (typically 32 data points) in which all the reagents except BRD4(2) were present. The IC50 was determined by regression analysis based on a 4-parameter equation (minimum, maximum, IC50, Hill; Y=max+(min−max)/(1+(X/IC50)Hill)).

| IC50 (MOLM-13 cells) [nM] | IC50 [1] [nM] | SMILES | IC50 (MOLP-8 cells) [nM] |
| --- | --- | --- | --- |
| 300 | 47 | C[C@@H]1C(=O)N(C)c2ccc(Nc3ccc(C(=O)N4CCOCC4)cc3)cc2N1Cc1ccccc1 [Example 12, (3R)-4-benzyl-1,3-dimethyl-6-{[4-(morpholin-4-ylcarbonyl)phenyl]amino}-3,4-dihydroquinoxalin-2(1H)-one] | 98 |
| 223 | 51 | C[C@@H]1C(=O)N(C)c2ccc(Nc3ccc(S(=O)(=O)N4CCOCC4)cc3)cc2N1Cc1ccccc1 [Example 13, (3R)-4-benzyl-1,3-dimethyl-6-{[4-(morpholin-4-ylsulphonyl)phenyl]amino}-3,4-dihydroquinoxalin-2(1H)-one] | 98 |
| 233 | 78 | C[C@@H]1C(=O)N(C)c2ccc(Nc3ccc(S(=O)(=O)N(C)C)cc3)cc2N1Cc1ccccc1 [Example 14, 4-{[(3R)-4-benzyl-1,3-dimethyl-2-oxo-1,2,3,4-tetrahydroquinoxalin-6-yl]amino}-N,N-dimethylbenzenesulphonamide] | 115 |
| 90 | 51 | C[C@@H]1C(=O)N(C)c2ccc(Nc3ccc(S(=O)(=O)N4CCN(C)CC4)cc3)cc2N1Cc1ccccc1 [Example 15, (3R)-4-benzyl-1,3-dimethyl-6-({4-[(4-methylpiperazin-1-yl)sulphonyl]phenyl}amino)-3,4-dihydroquinoxalin-2(1H)-one] | 109 |
| 374 | 97 | C[C@@H]1C(=O)N(C)c2ccc(Nc3ccc(C(=O)N4CC5(CCS5(=O)=O)C4)cc3)cc2N1Cc1ccccc1 [Example 16, (3R)-4-benzyl-6-({4-[(1,1-dioxido-1-thia-6-azaspiro[3.3]hept-6-yl)carbonyl]phenyl}amino)-1,3-dimethyl-3,4-dihydroquinoxalin-2(1H)-one] | 96 |
| 315 | 83 | COc1ccc(CN2c3cc(Nc4ccc(C(=O)NC5CCN(C)CC5)cc4)ccc3N(C)C(=O)[C@H]2C)cc1 [Example 17, 4-{[(3R)-4-(4-methoxybenzyl)-1,3-dimethyl-2-oxo-1,2,3,4-tetrahydroquinoxalin-6-yl]amino}-N-(1-methylpiperidin-4-yl)benzamide] | 69 |
| 257 | 111 | COc1ccc(CN2c3cc(Nc4ccc(C(=O)N5CCOCC5)cc4)ccc3N(C)C(=O)[C@H]2C)cc1 [Example 18, (3R)-4-(4-methoxybenzyl)-1,3-dimethyl-6-{[4-(morpholin-4-ylcarbonyl)phenyl]amino}-3,4-dihydroquinoxalin-2(1H)-one] | 148 |
| 335 | 110 | COc1ccc(CN2c3cc(Nc4ccc(C(=O)NCC5COC5)cc4)ccc3N(C)C(=O)[C@H]2C)cc1 [Example 19, 4-{[(3R)-4-(4-methoxybenzyl)-1,3-dimethyl-2-oxo-1,2,3,4-tetrahydroquinoxalin-6-yl]amino}-N-(oxetan-3-ylmethyl)benzamide] | 124 |
| 351 | 43 | COc1ccc(CN2c3cc(Nc4ccc(C(=O)N5CC6(COC6)C5)cc4)ccc3N(C)C(=O)[C@H]2C)cc1 [Example 20, (3R)-4-(4-methoxybenzyl)-1,3-dimethyl-6-{[4-(2-oxa-6-azaspiro[3.3]hept-6-ylcarbonyl)phenyl]amino}-3,4-dihydroquinoxalin-2(1H)-one] | 120 |
| 275 | 54 | COc1ccc(CN2c3cc(Nc4ccc(C(=O)NCCN5CCN(C)CC5)cc4)ccc3N(C)C(=O)[C@H]2C)cc1 [Example 21, 4-{[(3R)-4-(4-methoxybenzyl)-1,3-dimethyl-2-oxo-1,2,3,4-tetrahydroquinoxalin-6-yl]amino}-N-[2-(4-methylpiperazin-1-yl)ethyl]benzamide] | 69 |
| 261 | 86 | COc1ccc(CN2c3cc(Nc4ccc(C(=O)N5CCN(C(C)C)CC5)cc4)ccc3N(C)C(=O)[C@H]2C)cc1 [Example 22, (3R)-4-(4-methoxybenzyl)-1,3-dimethyl-6-[(4-{[4-(propan-2-yl)piperazin-1-yl]carbonyl}phenyl)amino]-3,4-dihydroquinoxalin-2(1H)-one] | 93 |
| 1260 | 152 | C[C@@H]1C(=O)N(C)c2ccc(Nc3ccc(C(=O)NC4CCN(C)CC4)cc3)cc2N1C1CCCCCC1 [Example 23, 4-{[(3R)-4-cycloheptyl-1,3-dimethyl-2-oxo-1,2,3,4-tetrahydroquinoxalin-6-yl]amino}-N-(1-methylpiperidin-4-yl)benzamide] | 1020 |
| 967 | 102 | C[C@@H]1C(=O)N(C)c2ccc(Nc3ccc(C(=O)N4CCOCC4)cc3)cc2N1C1CCCCCC1 [Example 24, (3R)-4-cycloheptyl-1,3-dimethyl-6-{[4-(morpholin-4-ylcarbonyl)phenyl]amino}-3,4-dihydroquinoxalin-2(1H)-one] | 662 |
| 1360 | 357 | C[C@@H]1C(=O)N(C)c2ccc(Nc3ccc(C(=O)NCC4COC4)cc3)cc2N1C1CCCCCC1 [Example 25, 4-{[(3R)-4-cycloheptyl-1,3-dimethyl-2-oxo-1,2,3,4-tetrahydroquinoxalin-6-yl]amino}-N-(oxetan-3-ylmethyl)benzamide] | 1360 |
| 1580 | 391 | C[C@@H]1C(=O)N(C)c2ccc(Nc3ccc(C(=O)NC4CCN(C)CC4)cc3)cc2N1C1CCOCC1 [Example 26, 4-{[(3R)-1,3-dimethyl-2-oxo-4-(tetrahydro-2H-pyran-4-yl)-1,2,3,4-tetrahydroquinoxalin-6-yl]amino}-N-(1-methylpiperidin-4-yl)benzamide] | 1030 |
| 1950 | 419 | C[C@@H]1C(=O)N(C)c2ccc(Nc3ccc(C(=O)N4CCOCC4)cc3)cc2N1C1CCOCC1 [Example 27, (3R)-1,3-dimethyl-6-{[4-(morpholin-4-ylcarbonyl)phenyl]amino}-4-(tetrahydro-2H-pyran-4-yl)-3,4-dihydroquinoxalin-2(1H)-one] | 1130 |
| 2760 | 513 | C[C@@H]1C(=O)N(C)c2ccc(Nc3ccc(C(=O)NCC4COC4)cc3)cc2N1C1CCOCC1 [Example 28, 4-{[(3R)-1,3-dimethyl-2-oxo-4-(tetrahydro-2H-pyran-4-yl)-1,2,3,4-tetrahydroquinoxalin-6-yl]amino}-N-(oxetan-3-ylmethyl)benzamide] | 1800 |
